Test results from ChEMBL document CHEMBL2321780, “Fluorinated quinazolinones as potential radiotracers for imaging kinesin spindle protein expression” (2013).

Columns and labels:
MCF7 [1] = assay: Cytotoxicity against human MCF7 cells assessed as inhibition of KSP-mediated cell cycle progression after 44 hrs by MTT assay; format: functional; conditions: MCF7, 44 h
PC-3 [2] = assay: Cytotoxicity against human PC3 cells assessed as inhibition of KSP-mediated cell cycle progression after 44 hrs by MTT assay; format: functional; conditions: PC-3, 44 h
PC-3 [3] = assay: Nonspecific cytotoxicity against human PC3 cells after 44 hrs by MTT assay; format: functional; conditions: PC-3, 44 h
DU-145 [4] = assay: Cytotoxicity against human DU145 cells assessed as inhibition of KSP-mediated cell cycle progression after 44 hrs by MTT assay; format: functional; conditions: DU-145, 44 h
[5] = target: T1, Kinesin-like protein KIF2C (Homo sapiens) (UniProt Q99661); assay: Inhibition of MCAK (unknown origin)-mediated ATP hydrolysis assessed as residual activity at 1 uM after 10 to 20 mins by spectrophotometric analysis
T1 sequence (whole entry): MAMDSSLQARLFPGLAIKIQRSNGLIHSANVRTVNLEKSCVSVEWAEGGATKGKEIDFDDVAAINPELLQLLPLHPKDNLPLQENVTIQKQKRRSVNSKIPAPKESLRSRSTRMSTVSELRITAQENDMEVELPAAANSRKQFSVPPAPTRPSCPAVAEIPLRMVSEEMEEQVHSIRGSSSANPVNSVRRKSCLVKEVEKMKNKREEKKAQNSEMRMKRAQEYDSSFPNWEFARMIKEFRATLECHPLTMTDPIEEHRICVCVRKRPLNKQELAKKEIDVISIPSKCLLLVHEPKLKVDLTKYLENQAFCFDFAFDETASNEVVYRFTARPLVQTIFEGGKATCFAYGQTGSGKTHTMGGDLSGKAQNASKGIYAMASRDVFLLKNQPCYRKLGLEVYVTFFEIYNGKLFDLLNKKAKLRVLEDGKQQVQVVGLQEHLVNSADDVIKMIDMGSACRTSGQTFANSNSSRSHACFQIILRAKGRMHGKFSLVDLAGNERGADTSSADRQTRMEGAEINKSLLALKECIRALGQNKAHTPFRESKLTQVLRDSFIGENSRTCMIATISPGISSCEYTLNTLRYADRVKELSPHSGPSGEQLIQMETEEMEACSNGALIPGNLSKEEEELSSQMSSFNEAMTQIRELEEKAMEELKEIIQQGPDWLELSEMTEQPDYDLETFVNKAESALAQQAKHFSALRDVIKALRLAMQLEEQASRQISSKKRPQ

[6] = target: T2, Kinesin-like protein KIF11 (Homo sapiens) (UniProt P52732); assay: Inhibition of KSP (unknown origin)-mediated ATP hydrolysis assessed as residual activity at 1 uM after 10 to 20 mins by spectrophotometric analysis
T2 sequence (whole entry): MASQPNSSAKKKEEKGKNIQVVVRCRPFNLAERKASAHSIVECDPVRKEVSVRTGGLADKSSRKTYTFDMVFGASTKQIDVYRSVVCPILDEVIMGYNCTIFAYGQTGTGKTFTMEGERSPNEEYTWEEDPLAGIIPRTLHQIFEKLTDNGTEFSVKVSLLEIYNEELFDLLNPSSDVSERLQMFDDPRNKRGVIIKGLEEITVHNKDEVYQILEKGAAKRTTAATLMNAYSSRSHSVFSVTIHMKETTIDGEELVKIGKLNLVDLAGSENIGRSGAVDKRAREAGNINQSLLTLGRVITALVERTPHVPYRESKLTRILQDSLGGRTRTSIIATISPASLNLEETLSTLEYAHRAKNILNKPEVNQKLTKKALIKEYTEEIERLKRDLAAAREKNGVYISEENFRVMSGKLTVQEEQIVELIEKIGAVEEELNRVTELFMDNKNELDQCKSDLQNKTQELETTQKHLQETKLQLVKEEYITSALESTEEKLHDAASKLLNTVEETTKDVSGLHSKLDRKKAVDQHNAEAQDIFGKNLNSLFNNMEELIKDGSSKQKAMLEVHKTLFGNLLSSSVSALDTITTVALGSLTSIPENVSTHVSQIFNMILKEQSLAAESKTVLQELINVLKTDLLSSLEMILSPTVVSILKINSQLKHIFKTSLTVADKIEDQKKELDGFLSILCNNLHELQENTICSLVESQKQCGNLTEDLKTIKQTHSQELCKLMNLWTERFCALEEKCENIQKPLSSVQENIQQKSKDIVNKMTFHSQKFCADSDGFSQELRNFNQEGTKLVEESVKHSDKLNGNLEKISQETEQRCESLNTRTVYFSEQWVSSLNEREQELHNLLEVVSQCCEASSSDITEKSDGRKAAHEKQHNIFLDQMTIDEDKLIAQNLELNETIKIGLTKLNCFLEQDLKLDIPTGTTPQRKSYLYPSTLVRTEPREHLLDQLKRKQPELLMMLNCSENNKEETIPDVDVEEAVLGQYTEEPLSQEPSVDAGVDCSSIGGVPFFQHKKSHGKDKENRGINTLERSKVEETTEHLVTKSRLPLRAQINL

SK-OV-3 [7] = assay: Cell cycle arrest in human SKOV3 cells assessed as accumulation in S phase at 100 nM after 24 hrs by FACS analysis (reference value: 18.4%); format: functional
SK-OV-3 [8] = assay: Cell cycle arrest in human SKOV3 cells assessed as accumulation in G0/G1 phase at 100 nM after 24 hrs by FACS analysis (reference value: 51.1%); format: functional
MCF7 [9] = assay: Cell cycle arrest in human MCF7 cells assessed as accumulation in G2/M phase at 100 nM after 24 hrs by FACS analysis (reference value: 22.4%); format: functional
MCF7 [10] = assay: Cell cycle arrest in human MCF7 cells assessed as accumulation in G0/G1 phase at 100 nM after 24 hrs by FACS analysis (reference value: 48.2%); format: functional
MCF7 [11] = assay: Cell cycle arrest in human MCF7 cells assessed as accumulation in S phase at 100 nM after 24 hrs by FACS analysis (reference value: 19.6%); format: functional
PC-3 [12] = assay: Cell cycle arrest in human PC3 cells assessed as accumulation in G2/M phase at 100 nM after 24 hrs by FACS analysis (reference value: 26.3%); format: functional
PC-3 [13] = assay: Cell cycle arrest in human PC3 cells assessed as accumulation in S phase at 100 nM after 24 hrs by FACS analysis (reference value: 14.2%); format: functional
PC-3 [14] = assay: Cell cycle arrest in human PC3 cells assessed as accumulation in G0/G1 phase at 100 nM after 24 hrs by FACS analysis (reference value: 32.6%); format: functional
DU-145 [15] = assay: Cell cycle arrest in human DU145 cells assessed as accumulation in S phase at 100 nM after 24 hrs by FACS analysis (reference value: 4.5%); format: functional
DU-145 [16] = assay: Cell cycle arrest in human DU145 cells assessed as accumulation in G2/M phase at 100 nM after 24 hrs by FACS analysis (reference value: 31%); format: functional
DU-145 [17] = assay: Cell cycle arrest in human DU145 cells assessed as accumulation in G0/G1 phase at 100 nM after 24 hrs by FACS analysis (reference value: 53.2%); format: functional
SK-OV-3 [18] = assay: Cell cycle arrest in human SKOV3 cells assessed as accumulation in G2/M phase at 100 nM after 24 hrs by FACS analysis (reference value: 21.8%); format: functional

| SMILES | Activity [5] [%] | Activity [6] [%] | GI50 (MCF7 [1]) [nM] | GI50 (PC-3 [2]) [nM] | GI50 (PC-3 [3]) [µM] | GI50 (DU-145 [4]) [nM] | Activity (SK-OV-3 [7]) [%] | Activity (SK-OV-3 [8]) [%] | Activity (MCF7 [9]) [%] | Activity (MCF7 [10]) [%] | Activity (MCF7 [11]) [%] | Activity (PC-3 [12]) [%] | Activity (PC-3 [13]) [%] | Activity (PC-3 [14]) [%] | Activity (DU-145 [15]) [%] | Activity (DU-145 [16]) [%] | Activity (DU-145 [17]) [%] | Activity (SK-OV-3 [18]) [%] |
| --- | --- | --- | --- | --- | --- | --- | --- | --- | --- | --- | --- | --- | --- | --- | --- | --- | --- | --- |
| Cc1ccc(C(=O)N(CCCN)[C@H](c2nc3cc(Cl)ccc3c(=O)n2Cc2ccccc2)C(C)C)cc1 | 99.2 | 99.4 | – | – | – | – | 16.6 | 49.8 | 21.2 | 49.7 | 17.6 | 25 | 30 | 34.4 | 10.3 | 24.5 | 53.7 | 14.5 |
| CC(C)[C@@H](c1nc2cc(Cl)ccc2c(=O)n1Cc1ccccc1)N(CCCN)C(=O)c1cccc(F)c1 | 98.6 | 95.5 | – | – | 1.8 | – | – | – | – | – | – | – | – | – | – | – | – | – |
| CC(C)[C@H](c1nc2cc(Cl)ccc2c(=O)n1Cc1ccccc1)N(CCCN)C(=O)c1ccccc1F | 98.7 | 7.5 | 4.2 | 7.8 | 4.6 | 10.7 | – | – | – | – | – | – | – | – | – | – | – | – |

The next lines start with results.

| Activity [5] [%] | Activity [6] [%] | SMILES | GI50 (MCF7 [1]) [nM] | GI50 (PC-3 [2]) [nM] | GI50 (PC-3 [3]) [µM] | GI50 (DU-145 [4]) [nM] | Activity (SK-OV-3 [7]) [%] | Activity (SK-OV-3 [8]) [%] | Activity (MCF7 [9]) [%] | Activity (MCF7 [10]) [%] | Activity (MCF7 [11]) [%] | Activity (PC-3 [12]) [%] | Activity (PC-3 [13]) [%] | Activity (PC-3 [14]) [%] | Activity (DU-145 [15]) [%] | Activity (DU-145 [16]) [%] | Activity (DU-145 [17]) [%] | Activity (SK-OV-3 [18]) [%] |
| --- | --- | --- | --- | --- | --- | --- | --- | --- | --- | --- | --- | --- | --- | --- | --- | --- | --- | --- |
| 96.4 | 10.1 | CC(C)C(c1nc2cc(Cl)ccc2c(=O)n1Cc1ccccc1)N(CCCN)C(=O)c1cccc(F)c1 (racemic) | 5.1 | 17 | 7.6 | 4 | – | – | – | – | – | – | – | – | – | – | – | – |
| 98.2 | 95.9 | CC(C)[C@@H](c1nc2cc(Cl)ccc2c(=O)n1Cc1ccccc1)N(CCCN)C(=O)c1ccccc1F | – | – | 0.16 | – | – | – | – | – | – | – | – | – | – | – | – | – |
| 96.7 | 8.8 | Cc1ccc(C(=O)N(CCCN)[C@@H](c2nc3cc(Cl)ccc3c(=O)n2Cc2ccccc2)C(C)C)cc1 [ISPINESIB] | – | – | – | – | 13.6 | 3.8 | 57.2 | 22.1 | 10.6 | 60.9 | 10.1 | 13.8 | 10.8 | 49.8 | 24.8 | 51.3 |
| 98.9 | 96.1 | CC(C)[C@@H](c1nc2cc(Cl)ccc2c(=O)n1Cc1ccccc1)N(CCCN)C(=O)c1ccc(F)cc1 | – | – | 1.3 | – | 16.2 | 51.9 | 22.8 | 51.3 | 15.2 | 32.9 | 24.2 | 31 | 9.5 | 27.7 | 52.9 | 22.5 |
| 99.2 | 2.7 | CC(C)[C@H](c1nc2cc(Cl)ccc2c(=O)n1Cc1ccccc1)N(CCCN)C(=O)c1ccc(F)cc1 | 1 | 0.5 | 5.1 | 0.19 | 13.8 | 3.5 | 53.2 | 25.1 | 12 | 63.6 | 11.1 | 12 | – | – | – | 58.5 |
